Here are results for 4 compounds from ChEMBL document CHEMBL1201862, “PubChem BioAssay data set” (2004).

Among the test systems are NCI-H522; UACC-62; CCRF-CEM; HL-60; EKVX; OVCAR-3; NCI-H226; NCI-H460; A549; COLO 205; MOLT-4; UO-31; K562; HCC 2998; SK-MEL-2; ACHN; SR; CAKI-1; OVCAR-4; HOP-62.
Common to all, as to experiment: DTP human tumour cell line panel, 48 h

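Protocol summary: plate cells (96-well), add compound at 5 concentrations, incubate 48 h, interpolate endpoints linearly. At the GI50, growth is halved.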 Calls of active or inactive are those of the source. Rule as the data show it: active = GI50 up to about 1.1 µM and inactive = higher.

As a reminder, the GI50 is the concentration giving 50% growth inhibition.

Consider `CC(=O)N(C(C)=O)n1c(Cc2ccc(Cl)cc2)n[nH]c1=O`, for which the GI50 with NCI-H522, in the assay with UACC-62, in the assay on CCRF-CEM, in the assay on HL-60, with EKVX and with OVCAR-3 was > 100 µM (inactive) in each case. For the same compound, the GI50 with NCI-H226, in the assay on NCI-H460, with A549, with COLO 205, in the assay with MOLT-4 and in the assay with UO-31 was > 100 µM (inactive) each time. Also, the GI50 in the assay on K562, in the assay on HCC 2998, with SK-MEL-2, in the assay with ACHN, in the assay with SR and in the assay on CAKI-1 was > 100 µM (inactive) in each case. The GI50 with OVCAR-4 is > 100 µM (inactive); in the assay on HOP-62 it was > 55.8 µM (inactive).

Turning to `CCOC(=O)c1cc(C2=CCNC2=O)c(-c2cc(C)no2)[nH]1`, the GI50 in the assay with NCI-H522 is 16.7 µM (inactive); with UACC-62, 39.1 µM (inactive); with CCRF-CEM, 34 µM (inactive); in the assay on HL-60 it was 22.3 µM (inactive); in the assay with EKVX, 59.4 µM (inactive); with OVCAR-3 it was 45.6 µM (inactive). Also, the GI50 was > 100 µM (inactive) with NCI-H226; 63.4 µM (inactive) with NCI-H460; 37.4 µM (inactive) with A549; 54.8 µM (inactive) in the assay on COLO 205; 25.1 µM (inactive) in the assay with MOLT-4; 27.7 µM (inactive) in the assay on UO-31. The GI50 in the assay with K562 is 34.8 µM (inactive); in the assay on HCC 2998, > 100 µM (inactive); in the assay on SK-MEL-2, > 100 µM (inactive); in the assay on ACHN, 52.1 µM (inactive); in the assay on SR, 33.2 µM (inactive); with CAKI-1, > 100 µM (inactive). In addition, the GI50 in the assay on OVCAR-4 is 49.5 µM (inactive); in the assay on HOP-62, 73.3 µM (inactive).

With `COc1ccc(C(=O)CC(=O)C(=O)Nc2ccc(C)c(C)c2)cc1`, the GI50 in the assay with NCI-H522 is 68.9 µM (inactive); in the assay with UACC-62, > 95.5 µM (inactive); with CCRF-CEM, 26.5 µM (inactive); with HL-60 it was 10.5 µM (inactive); in the assay with EKVX, > 100 µM (inactive); with OVCAR-3, > 100 µM (inactive). Besides, the GI50 was > 100 µM (inactive) in the assay with NCI-H226; > 41.3 µM (inactive) in the assay with NCI-H460; > 91.8 µM (inactive) in the assay on A549; > 51.9 µM (inactive) in the assay with COLO 205; > 53.2 µM (inactive) with MOLT-4; 98.6 µM (inactive) in the assay with UO-31. Moreover, the GI50 in the assay with K562 is 53.6 µM (inactive); in the assay on HCC 2998, 97.3 µM (inactive); in the assay with SK-MEL-2 it was > 100 µM (inactive); with ACHN, > 100 µM (inactive); with SR, > 100 µM (inactive); in the assay on CAKI-1, > 100 µM (inactive). In addition, the GI50 in the assay with OVCAR-4 is 85.5 µM (inactive); in the assay on HOP-62, > 90.8 µM (inactive).

With `Cc1sc(C)c2c1C(=O)CC2N` (stereo not given), the GI50 is 3.3 µM (inactive) in the assay on NCI-H522; 75.3 µM (inactive) in the assay on UACC-62; 1.04 µM (active) in the assay with CCRF-CEM; 6.64 µM (inactive) in the assay with HL-60; 44.9 µM (inactive) in the assay on EKVX; 17.5 µM (inactive) with OVCAR-3. Moreover, the GI50 is > 37.8 µM (inactive) in the assay with NCI-H226; 29.1 µM (inactive) with NCI-H460; 29.3 µM (inactive) in the assay on A549; 17.1 µM (inactive) with COLO 205; 1.58 µM (inactive) in the assay on MOLT-4; 15.6 µM (inactive) with UO-31. In addition, the GI50 with K562 is 4.85 µM (inactive); in the assay with HCC 2998 it was 19.3 µM (inactive); with SK-MEL-2, > 100 µM (inactive); in the assay with ACHN it was 16.8 µM (inactive); in the assay with SR it was 4.27 µM (inactive); with CAKI-1 it was 15.1 µM (inactive). Also, the values for the GI50 in the assay with OVCAR-4 and in the assay on HOP-62 were 28 µM (inactive) and > 85.5 µM (inactive), respectively.
